In patent publication US10287255B2, “Compounds as histone deacetylase 6 inhibitors and pharmaceutical compositions comprising the same” (CHONG KUN DANG PHARMACEUTICAL CORP., priority 2014, dated 2019):

Tests used:
[1] = molecular target: T1, human recombinant HDAC6 (Homo sapiens, UniProt Q9UBN7); assay: HDAC6 enzyme activity inhibition assay (in vitro, fluorimetric); assay type: biochemical; details: for HDAC6 selectivity (fold): HDAC6 selectivity over HDAC1; for IC50: human recombinant HDAC6, fluorimetric kit, same protocol as HDAC1
T1 construct: purchased Calbiochem 382180
T1 sequence (Q9UBN7 1-1215): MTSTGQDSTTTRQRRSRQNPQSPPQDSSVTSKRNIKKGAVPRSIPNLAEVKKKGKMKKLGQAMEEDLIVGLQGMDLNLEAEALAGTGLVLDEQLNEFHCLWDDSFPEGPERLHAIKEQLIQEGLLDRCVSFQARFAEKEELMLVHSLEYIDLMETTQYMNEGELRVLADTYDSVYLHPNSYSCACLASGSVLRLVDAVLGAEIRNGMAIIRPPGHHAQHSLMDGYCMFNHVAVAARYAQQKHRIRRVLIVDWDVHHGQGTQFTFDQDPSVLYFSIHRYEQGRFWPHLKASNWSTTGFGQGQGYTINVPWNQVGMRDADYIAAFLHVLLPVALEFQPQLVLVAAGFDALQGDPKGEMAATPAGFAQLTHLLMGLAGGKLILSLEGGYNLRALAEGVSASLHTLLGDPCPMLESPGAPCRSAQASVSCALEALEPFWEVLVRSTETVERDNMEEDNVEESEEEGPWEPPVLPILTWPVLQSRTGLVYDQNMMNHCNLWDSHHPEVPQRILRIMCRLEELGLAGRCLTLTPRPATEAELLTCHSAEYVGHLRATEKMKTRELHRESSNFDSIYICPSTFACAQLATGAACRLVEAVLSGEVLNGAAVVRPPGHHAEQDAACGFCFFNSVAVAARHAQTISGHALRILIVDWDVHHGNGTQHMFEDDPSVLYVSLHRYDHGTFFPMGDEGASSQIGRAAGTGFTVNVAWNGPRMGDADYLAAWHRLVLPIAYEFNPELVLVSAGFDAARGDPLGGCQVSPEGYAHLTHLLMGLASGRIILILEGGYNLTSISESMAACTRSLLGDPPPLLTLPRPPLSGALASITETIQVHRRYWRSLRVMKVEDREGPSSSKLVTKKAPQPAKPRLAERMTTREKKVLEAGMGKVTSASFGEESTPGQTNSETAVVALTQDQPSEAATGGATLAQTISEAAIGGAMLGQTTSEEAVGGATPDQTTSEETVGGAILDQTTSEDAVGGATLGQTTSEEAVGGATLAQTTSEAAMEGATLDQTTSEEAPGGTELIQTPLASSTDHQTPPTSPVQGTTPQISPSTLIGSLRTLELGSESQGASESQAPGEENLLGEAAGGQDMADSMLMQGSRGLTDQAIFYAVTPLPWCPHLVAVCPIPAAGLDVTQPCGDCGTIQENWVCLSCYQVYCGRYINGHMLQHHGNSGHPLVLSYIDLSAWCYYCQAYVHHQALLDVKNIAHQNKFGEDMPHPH
Method in brief: (§1)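 IC50 values derive from fluorescence (Ex 360, Em 460) after developer treatment (30 min) of reactions of recombinant human HDAC1 or HDAC6 with 10 μM Fluor de Lys-SIRT1 substrate (60 min, 30 °C). Compounds were serially diluted 5-fold; 0.3 μg enzyme was used for HDAC1, with HDAC6 tested identically.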

[2] = molecular target: T2, human recombinant HDAC1 (Homo sapiens, UniProt Q13547); assay: HDAC1 enzyme activity inhibition assay (in vitro, fluorimetric); assay type: biochemical; details: human recombinant HDAC1, fluorimetric kit, 30° C. 60 minutes
T2 construct: purchased Enzo Life Science BML-SE456
Method in brief: as §1

T2 sequence (Q13547 whole entry): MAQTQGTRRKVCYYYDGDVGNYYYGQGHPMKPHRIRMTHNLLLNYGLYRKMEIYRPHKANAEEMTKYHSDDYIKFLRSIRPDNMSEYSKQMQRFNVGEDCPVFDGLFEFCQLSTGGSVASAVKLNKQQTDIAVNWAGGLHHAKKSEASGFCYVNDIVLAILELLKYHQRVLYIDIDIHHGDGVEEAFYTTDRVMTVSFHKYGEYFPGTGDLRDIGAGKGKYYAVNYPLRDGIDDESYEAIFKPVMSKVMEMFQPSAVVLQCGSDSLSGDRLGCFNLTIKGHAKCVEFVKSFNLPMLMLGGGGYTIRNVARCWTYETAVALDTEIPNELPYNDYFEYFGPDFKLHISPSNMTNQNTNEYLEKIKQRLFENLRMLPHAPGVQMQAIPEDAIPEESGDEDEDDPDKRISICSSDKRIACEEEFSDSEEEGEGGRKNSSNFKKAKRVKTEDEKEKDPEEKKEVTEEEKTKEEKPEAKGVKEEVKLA

Row | SMILES | HDAC6 selectivity (fold) [1] [fold] | IC50 [1] [nM] | IC50 [2] [nM]
1 | CCN1CC=C(c2ccccc2CN2[C@H](C)CN(Cc3ccc(C(=O)NO)cc3)C[C@@H]2C)CC1 [Compound 485, 4-(((3R,5S)-4-(2-(1-ethyl-1,2,3,6-tetrahydropyridin-4-yl)benzyl)-3,5-dimethylpiperazin-1-yl)methyl)-N-hydroxybenzamide] | 101 | 145 | 14700
2 | CCN(CC)Cc1cccc(C(=O)N2C[C@@H](C)N(Cc3ccc(/C=C/C(=O)NO)cc3)[C@@H](C)C2)c1 [Compound 487, (E)-3-(4-(((2S,6R)-4-(3-((diethylamino)methyl)benzoyl)-2,6-dimethylpiperazin-1-yl)methyl)phenyl)-N-hydroxyacrylamide] | 4 | 296 | 1100
3 | C[C@@H]1CN(Cc2c[nH]c3cc(C(=O)NO)ccc23)C[C@H](C)N1Cc1ccccc1 [Compound 520, 3-(((3R,5S)-4-benzyl-3,5-dimethylpiperazin-1-yl)methyl)-N-hydroxy-1H-indole-6-carboxamide] | >11 | 860 | > 10000
4 | C[C@@H]1CN(Cc2ccc3[nH]c(C(=O)NO)cc3c2)C[C@H](C)N1Cc1ccccc1 [Compound 569, 5-(((3R,5S)-4-benzyl-3,5-dimethylpiperazin-1-yl)methyl)-N-hydroxy-1H-indole-2-carboxamide] | 82 | 840 | > 10000
5 | C[C@@H]1CN(Cc2ccc3cc(C(=O)NO)[nH]c3c2)C[C@H](C)N1Cc1ccccc1 [Compound 573, 6-(((3R,5S)-4-benzyl-3,5-dimethylpiperazin-1-yl)methyl)-N-hydroxy-1H-indole-2-carboxamide] | 36 | 1440 | > 10000
6 | C[C@@H]1CN(Cc2cc3cc(C(=O)NO)ccc3o2)C[C@H](C)N1Cc1ccccc1 [Compound 574, 2-(((3R,5S)-4-benzyl-3,5-dimethylpiperazin-1-yl)methyl)-N-hydroxybenzofuran-5-carboxamide] | 4 | 810 | 3900
7 | C[C@@H]1CN(Cc2ccc(C(=O)NO)nc2)C[C@H](C)N1Cc1cccc(CN2CCOCC2)c1 [Compound 609, 5-(((3R,5S)-3,5-dimethyl-4-(3-(morpholinomethyl)benzyl)piperazin-1-yl)methyl)-N-hydroxypicolinamide] | >13.3 | 754 | > 10000
8 | C[C@@H]1CN(Cc2ccc(C(=O)NO)c(O)c2)C[C@H](C)N1Cc1ccccc1 [Compound 652, 4-(((3R,5S)-4-benzyl-3,5-dimethylpiperazin-1-yl)methyl)-N,2-dihydroxybenzamide] | >11 | 880 | > 10000
9 | C[C@@H]1CN(Cc2ccc(C(=O)NO)c(O)c2)C[C@H](C)N1Cc1cccc(CN2CCOCC2)c1 [Compound 653, 4-(((3R,5S)-3,5-dimethyl-4-(3-(morpholinomethyl)benzyl)piperazin-1-yl)methyl)-N,2-dihydroxybenzamide] | >23 | 420 | > 10000
10 | C[C@@H]1CN(Cc2ccc(C(=O)NO)nc2)C[C@H](C)N1Cc1ccccc1 [Compound 812, 5-(((3R,5S)-4-benzyl-3,5-dimethylpiperazin-1-yl)methyl)-N-hydroxypicolinamide] | >6 | 1540 | > 10000
11 | C[C@@H]1CN(C(=O)c2ccc(C(=O)NO)cc2)C[C@H](C)N1Cc1ccccc1 [Compound 814, 4-((3R,5S)-4-benzyl-3,5-dimethylpiperazine-1-carbonyl)-N-hydroxybenzamide] | 20 | 990 | 20600
12 | C[C@@H]1CN(S(=O)(=O)c2ccc(C(=O)NO)cc2)C[C@H](C)N1Cc1ccccc1 [Compound 818, 4-(((3R,5S)-4-benzyl-3,5-dimethylpiperazin-1-yl)sulfonyl)-N-hydroxybenzamide] | >11 | 870 | > 10000
13 | C[C@@H]1CN(S(=O)(=O)c2ccc(CC(=O)NO)cc2)C[C@H](C)N1Cc1ccccc1 [Compound 820, 2-(4-(((3R,5S)-4-benzyl-3,5-dimethylpiperazin-1-yl)sulfonyl)phenyl)-N-hydroxyacetamide] | 9 | 250 | 2250
14 | C[C@@H]1CN(CC2CCC(C(=O)NO)CC2)C[C@H](C)N1Cc1ccccc1 (stereo partly drawn) [Compound 822, 4-(((3R,5S)-4-benzyl-3,5-dimethylpiperazin-1-yl)methyl)-N-hydroxycyclohexane-1-carboxamide] | >35 | 280 | > 10000
15 | C[C@@H]1CN(C(=O)c2ccc(CCC(=O)NO)cc2)C[C@H](C)N1Cc1ccccc1 [Compound 824, 3-(4-((3R,5S)-4-benzyl-3,5-dimethylpiperazine-1-carbonyl)phenyl)-N-hydroxypropanamide] | 22 | 180 | 4100

Compounds with a lower IC50 [1], results first:

Row | HDAC6 selectivity (fold) [1] [fold] | IC50 [1] [nM] | IC50 [2] [nM] | SMILES
16 | 166 | 103 | 17100 | C[C@@H]1CN(Cc2ccc(C(=O)NO)cc2)C[C@H](C)N1Cc1ccccc1C1=CCN(CC(F)(F)F)CC1 [Compound 483, 4-(((3R,5S)-3,5-dimethyl-4-(2-(1-(2,2,2,2-trifluoroethyl)-1,2,3,6-tetrahydropyridin-4-yl)benzyl)piperazin-1-yl)methyl)-N-hydroxybenzamide]
17 | 151 | 130 | 19600 | CC(C)N1CC=C(c2ccccc2CN2[C@H](C)CN(Cc3ccc(C(=O)NO)cc3)C[C@@H]2C)CC1 [Compound 484, N-hydroxy-4-(((3R,5S)-4-(2-(1-isopropyl-1,2,3,6-tetrahydropyridin-4-yl)benzyl)-3,5-dimethylpiperazin-1-yl)methyl)benzamide]
18 | >79 | 126 | > 10000 | CC(=O)N1CCN(Cc2ccc(CN3[C@H](C)CN(Cc4ccc(C(=O)NO)cc4)C[C@@H]3C)cc2)CC1 [Compound 486, 4-(((3R,5S)-4-(4-((4-acetylpiperazin-1-yl)methyl)benzyl)-3,5-dimethylpiperazin-1-yl)methyl)-N-hydroxybenzamide]
19 | >1000 | 10 | > 10000 | C[C@@H]1CN(Cc2ccc(C(=O)NO)cc2F)C[C@H](C)N1Cc1cccc(CN2CCOCC2)c1 [Compound 696, 4-(((3R,5S)-3,5-dimethyl-4-(3-(morpholinomethyl)benzyl)piperazin-1-yl)methyl)-3-fluoro-N-hydroxybenzamide]
20 | 1720 | 10 | 17200 | C[C@@H]1CN(Cc2ccc(C(=O)NO)cc2F)C[C@H](C)N1Cc1ccccc1 [Compound 813, 4-(((3R,5S)-4-benzyl-3,5-dimethylpiperazin-1-yl)methyl)-3-fluoro-N-hydroxybenzamide]
21 | 66 | 40 | 2700 | C[C@@H]1CN(C(=O)c2ccc(CC(=O)NO)cc2)C[C@H](C)N1Cc1ccccc1 [Compound 823, 2-(4-((3R,5S)-4-benzyl-3,5-dimethylpiperazine-1-carbonyl)phenyl)-N-hydroxyacetamide]
